# Columns and labels:
# [1] = tested on: HPA axis activity (cortisol, ACTH) and melatonin in chronic insomnia subjects; experiment: Overnight melatonin (dim light), cortisol and ACTH levels in the insomnia study; type: in vivo, human; details: after 5 days treatment in the outpatient setting, FIG. 3
# subjects with insomnia [2] = experiment: Polysomnogram measures, double-blinded placebo controlled study of 5 days mifepristone in insomnia; type: in vivo, human; details: for % REM, average / % S1, average / % S2, average / % S3, average / % S4, average / Arousal, average / NUAW, average / Rem Lat, average / Rem density, average / S3 Lat, average / SE (S2, S3, S4), average / SE (S3, S4), average / SPT, average / TST, average / WASO, average: Rx Ave (n = 5)
# progesterone receptors = molecular target: T1, progesterone receptors (Homo sapiens, UniProt P06401); details: literature; cited from earlier work
# T1 sequence (P06401 1-933): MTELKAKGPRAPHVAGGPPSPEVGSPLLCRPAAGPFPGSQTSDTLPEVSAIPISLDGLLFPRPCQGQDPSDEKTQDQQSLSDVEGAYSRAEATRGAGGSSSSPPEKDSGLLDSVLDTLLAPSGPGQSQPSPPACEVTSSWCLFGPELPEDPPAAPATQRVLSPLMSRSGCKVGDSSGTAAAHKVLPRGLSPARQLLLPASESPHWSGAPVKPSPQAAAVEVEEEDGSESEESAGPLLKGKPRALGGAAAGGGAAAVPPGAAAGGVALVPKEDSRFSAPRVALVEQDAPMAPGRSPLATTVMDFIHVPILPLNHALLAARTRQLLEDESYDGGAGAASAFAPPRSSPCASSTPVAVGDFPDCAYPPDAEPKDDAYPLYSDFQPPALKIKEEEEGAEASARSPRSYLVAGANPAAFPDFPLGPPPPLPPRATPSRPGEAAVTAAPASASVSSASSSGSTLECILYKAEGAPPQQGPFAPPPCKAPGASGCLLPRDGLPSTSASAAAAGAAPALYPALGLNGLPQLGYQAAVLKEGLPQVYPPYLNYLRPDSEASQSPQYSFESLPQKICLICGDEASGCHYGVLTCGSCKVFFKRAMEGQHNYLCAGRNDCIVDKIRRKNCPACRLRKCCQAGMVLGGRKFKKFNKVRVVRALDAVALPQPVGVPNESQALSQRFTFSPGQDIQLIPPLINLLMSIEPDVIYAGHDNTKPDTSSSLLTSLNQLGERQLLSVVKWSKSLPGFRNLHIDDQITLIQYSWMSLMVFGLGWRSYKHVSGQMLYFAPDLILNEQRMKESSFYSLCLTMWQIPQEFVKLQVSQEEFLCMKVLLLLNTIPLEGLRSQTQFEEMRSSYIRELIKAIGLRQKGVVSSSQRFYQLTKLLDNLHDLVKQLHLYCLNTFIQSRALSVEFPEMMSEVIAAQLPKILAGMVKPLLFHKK
# [3] = one study, Kawai (1989); cited from earlier work
# healthy male = details: given in the afternoon, Wiedemann 1992; cited from earlier work
# subjects with insomnia [4] = experiment: Actigraphy measures of TST and WASO, outpatient portion of the insomnia study; type: in vivo, human; details: Tx (n = 2)
# [5] = 2 Wk Post Tx rel to Baseline, Tx Delta
# [6] = 2 Wk Post Tx rel to Baseline, Tx rel to Plac
# [7] = Day 5 Tx rel to Baseline, Tx Delta
# [8] = Day 5 Tx rel to Baseline, Tx rel to Plac
smiles,measurement,setting,value
"CC#C[C@]1(O)CC[C@H]2[C@@H]3CCC4=CC(=O)CCC4=C3[C@@H](c3ccc(N(C)C)cc3)C[C@@]21C [mifepristone, 17-beta-hydroxy-11-beta-(4-dimethyl-aminophenyl)-17-alpha-(1-propynyl)-estra-4,9-dien-3-one]",DLMO (time at which melatonin reaches 20 pg/ml),[1],delay
same,% REM (percentage REM sleep),subjects with insomnia [2]; [5],1.63%
same,% S1 (percentage stage 1 sleep),subjects with insomnia [2]; [5],−39.19%
same,% S2 (percentage stage 2 sleep),subjects with insomnia [2]; [5],−2.68%
same,% S3 (percentage stage 3 sleep),subjects with insomnia [2]; [5],1.09%
same,% S4 (percentage stage 4 sleep),subjects with insomnia [2]; [5],−1.48%
same,Arousal,subjects with insomnia [2]; [5],5.2
same,NUAW (number of awakenings),subjects with insomnia [2]; [5],0
same,Rem Lat (minutes to first epoch of REM after sleep onset),subjects with insomnia [2]; [5],-4 min
same,Rem p,subjects with insomnia [2]; [5],1.972
same,S3 Lat (latency to onset of stage 3 sleep),subjects with insomnia [2]; [5],-0.85 min
same,"SEB (S2, S3, S4) (total combined minutes of stage 2, 3 and 4 per total sleep minutes)",subjects with insomnia [2]; [5],2.57
same,"SEC (S3, S4) (total combined minutes of stage 3, 4 per total sleep minutes)",subjects with insomnia [2]; [5],1.19
same,SPT,subjects with insomnia [2]; [5],28.1 min
same,TST (total combined minutes of sleep),subjects with insomnia [2]; [5],38.5 min
same,WASO (wake after sleep onset),subjects with insomnia [2]; [5],-10.4 min
same,% REM (percentage REM sleep),subjects with insomnia [2]; [6],1.31%
same,% S1 (percentage stage 1 sleep),subjects with insomnia [2]; [6],−0.01%
same,% S2 (percentage stage 2 sleep),subjects with insomnia [2]; [6],−5.05%
same,% S3 (percentage stage 3 sleep),subjects with insomnia [2]; [6],1.45%
same,% S4 (percentage stage 4 sleep),subjects with insomnia [2]; [6],−0.98%
same,Arousal,subjects with insomnia [2]; [6],−3.7
same,NUAW (number of awakenings),subjects with insomnia [2]; [6],1.5
same,Rem Lat (minutes to first epoch of REM after sleep onset),subjects with insomnia [2]; [6],39.5 min
same,Rem p,subjects with insomnia [2]; [6],2.73
same,S3 Lat (latency to onset of stage 3 sleep),subjects with insomnia [2]; [6],23.1 min
same,"SEB (S2, S3, S4) (total combined minutes of stage 2, 3 and 4 per total sleep minutes)",subjects with insomnia [2]; [6],−1.34
same,"SEC (S3, S4) (total combined minutes of stage 3, 4 per total sleep minutes)",subjects with insomnia [2]; [6],2.02
same,SPT,subjects with insomnia [2]; [6],29.55 min
same,TST (total combined minutes of sleep),subjects with insomnia [2]; [6],21.65 min
same,WASO (wake after sleep onset),subjects with insomnia [2]; [6],7.85 min
same,% REM (percentage REM sleep),subjects with insomnia [2]; [7],−9.33%
same,% S1 (percentage stage 1 sleep),subjects with insomnia [2]; [7],−38.34%
same,% S2 (percentage stage 2 sleep),subjects with insomnia [2]; [7],6.44%
same,% S3 (percentage stage 3 sleep),subjects with insomnia [2]; [7],0.76%
same,% S4 (percentage stage 4 sleep),subjects with insomnia [2]; [7],−0.01%
same,Arousal,subjects with insomnia [2]; [7],0.9
same,NUAW (number of awakenings),subjects with insomnia [2]; [7],3.3
same,Rem Lat (minutes to first epoch of REM after sleep onset),subjects with insomnia [2]; [7],61.15 min
same,Rem p,subjects with insomnia [2]; [7],−0.826
same,S3 Lat (latency to onset of stage 3 sleep),subjects with insomnia [2]; [7],7.05 min
same,"SEB (S2, S3, S4) (total combined minutes of stage 2, 3 and 4 per total sleep minutes)",subjects with insomnia [2]; [7],−2.13
same,"SEC (S3, S4) (total combined minutes of stage 3, 4 per total sleep minutes)",subjects with insomnia [2]; [7],−7.3
same,SPT,subjects with insomnia [2]; [7],28.69 min
same,TST (total combined minutes of sleep),subjects with insomnia [2]; [7],17.05 min
same,WASO (wake after sleep onset),"subjects with insomnia [2]; Day 5 Tx rel to Baseline, Tx Delta, 600 mg/day in the morning, 5 days",16.4 min
same,% REM (percentage REM sleep),subjects with insomnia [2]; [8],−9.69%
same,% S1 (percentage stage 1 sleep),subjects with insomnia [2]; [8],1.76%
same,% S2 (percentage stage 2 sleep),subjects with insomnia [2]; [8],3.9%
same,% S3 (percentage stage 3 sleep),subjects with insomnia [2]; [8],0.71%
same,% S4 (percentage stage 4 sleep),subjects with insomnia [2]; [8],0.42%
same,Arousal,subjects with insomnia [2]; [8],−3.8
same,NUAW (number of awakenings),subjects with insomnia [2]; [8],5
same,Rem Lat (minutes to first epoch of REM after sleep onset),subjects with insomnia [2]; [8],99.6 min
same,Rem p,subjects with insomnia [2]; [8],0.654
same,S3 Lat (latency to onset of stage 3 sleep),subjects with insomnia [2]; [8],19.35 min
same,"SEB (S2, S3, S4) (total combined minutes of stage 2, 3 and 4 per total sleep minutes)",subjects with insomnia [2]; [8],−6.85
same,"SEC (S3, S4) (total combined minutes of stage 3, 4 per total sleep minutes)",subjects with insomnia [2]; [8],−7.45
same,SPT,subjects with insomnia [2]; [8],29.39 min
same,TST (total combined minutes of sleep),subjects with insomnia [2]; [8],-3.75 min
same,WASO (wake after sleep onset),subjects with insomnia [2]; [8],37.85 min
same,"% REM, average",subjects with insomnia [2]; T2,11.62%
same,"% S1, average",subjects with insomnia [2]; T2,15.48%
same,"% S2, average",subjects with insomnia [2]; T2,60.26%
same,"% S3, average",subjects with insomnia [2]; T2,7.63%
same,"% S4, average",subjects with insomnia [2]; T2,4.36%
same,"Arousal, average",subjects with insomnia [2]; T2,105.70
same,"NUAW, average",subjects with insomnia [2]; T2,27.60
same,"Rem Lat, average",subjects with insomnia [2]; T2,137.95 min
same,"Rem density, average",subjects with insomnia [2]; T2,7.16
same,"S3 Lat, average",subjects with insomnia [2]; T2,24.80 min
same,"SE (S2, S3, S4), average",subjects with insomnia [2]; T2,83.34
same,"SE (S3, S4), average",subjects with insomnia [2]; T2,24.94
same,"SPT, average",subjects with insomnia [2]; T2,469.24 min
same,"TST, average",subjects with insomnia [2]; T2,390.65 min
same,"WASO, average",subjects with insomnia [2]; T2,83.35 min
same,"% REM, average",subjects with insomnia [2]; T3,22.58%
same,"% S1, average",subjects with insomnia [2]; T3,14.63%
same,"% S2, average",subjects with insomnia [2]; T3,51.14%
same,"% S3, average",subjects with insomnia [2]; T3,7.96%
same,"% S4, average",subjects with insomnia [2]; T3,2.89%
same,"Arousal, average",subjects with insomnia [2]; T3,110.00
same,"NUAW, average",subjects with insomnia [2]; T3,24.30
same,"Rem Lat, average",subjects with insomnia [2]; T3,72.80 min
same,"Rem density, average",subjects with insomnia [2]; T3,9.95
same,"S3 Lat, average",subjects with insomnia [2]; T3,16.90 min
same,"SE (S2, S3, S4), average",subjects with insomnia [2]; T3,88.04
same,"SE (S3, S4), average",subjects with insomnia [2]; T3,33.43
same,"SPT, average",subjects with insomnia [2]; T3,468.65 min
same,"TST, average",subjects with insomnia [2]; T3,412.10 min
same,"WASO, average",subjects with insomnia [2]; T3,56.55 min
same,"total sleep time (TST), in words",subjects with insomnia [2]; at 2 weeks post treatment,increased
same,"REM latency (RL), in words",subjects with insomnia [2]; most acutely during active treatment,increased
same,antagonist of progesterone receptors,progesterone receptors,powerful antagonist
same,excreted in the urine,[3],less than 0.5 % of the daily dose
same,effect on sleep,healthy male,significant worsening of sleep
same,D7AV-smin (actigraphy TST),subjects with insomnia [4]; D7AV,458.86 min
same,D7AV-waso (actigraphy WASO),subjects with insomnia [4]; D7AV,45.14
same,D20AV-smin (actigraphy TST),subjects with insomnia [4]; D20AV,448.40 min
same,D20AV-waso (actigraphy WASO),subjects with insomnia [4]; D20AV,51.70
same,D26AV-smin (actigraphy TST),subjects with insomnia [4]; D26AV,473.08 min
same,D26AV-waso (actigraphy WASO),subjects with insomnia [4]; D26AV,31.67

# Source: patent US20070270393A1, “Methods and compositions for modulation of sleep cycle” (priority 2006, published 2007)
